US6576641B2, “Fused heterocyclic compounds and their use in the treatment of neurodegenerative diseases” (Neurosearch A/S, priority 1999, dated 2003)

Assays:
[1] = test system: differentiated PC12 cells; assay: Survival of differentiated PC12 cells after NGF withdrawal, cell viability by reduction of MTS; type: cell-based
Experimental: (§1) Survival of Differentiated PC12 Cells after NGF Withdrawal
(§2) PC12 cells are considered models for […] neurons for the investigation of neuronal differentiation and apoptosis.
(§3) PC12 cells were seeded in collagen coated 96 well plates at a cell density of 8000/cm^2 in DMEM with 7.5% FCS, 7.5% HS and 2 nM NGF and cultured for 6 days.
(§4) The medium was then changed to DMEM without serum supplemented with the compound of the test compound in the concentrations indicated in FIG. 1. As a positive control, parallel wells receiving serum-free DMEM without addition of vehicle or 3 nM NGF were included.
After 4 days of incubation, cell viability was evaluated by reduction of MTS using the CellTiter 96 AQueous Non-radioactive Cell Proliferation Assay (available from Promega).
Data are expressed as % of the response seen with 3 nM NGF, and corrected for residual MTS reduction activity in the parallel serum-free cultures, cf. FIG. 1A.

[2] = test system: differentiated PC12 cells; assay: Survival of differentiated PC12 cells after NGF withdrawal, cell viability by CyQUANT; type: cell-based; conditions: differentiated PC12 cells in serum-free medium, after 4 days; FIG. 1B
Experimental: as §1, §2, §3, §4
In another assay cell viability after 4 days was evaluated by using the CyQUANT Cell Proliferation Kit from Molecular Probes. CyQUANT might give a better correlation with the actual cell number of the culture than MTS, which rather reflects the total metabolic activity of the culture, cf. FIG. 1B.

CCCCN1CCc2oc(-c3ccc([N+](=O)[O-])cc3)cc2C1.O=C(O)/C=C/C(=O)O [Compound 1, 6-(4-Nitrophenyl)-furano[3,2-c]-N-butyl-1,2,3,4-tetrahydropyridine Fumaric Acid Salt]
rescue of differentiated PC12 cells in serum-free medium ([1]; at nanomolar concentrations, stated for both MTS and CyQUANT experiments): potent dose-dependent rescue | maximal protection (cell viability, MTS) ([1]; differentiated PC12 cells in serum-free medium, 4 days of incubation, % of the response seen with 3 nM NGF, corrected for serum-free cultures, FIG. 1A): approximately 30% | concentration giving maximal protection ([1]; differentiated PC12 cells in serum-free medium, tested 1 nM to 10 μM, stated for both MTS and CyQUANT experiments): 100 nM | maximal rescue (cell survival, CyQUANT) [2]: approximately 50%
